Data on two compounds can be found in patent US11618765B2, “Broad-spectrum antiviral nucleoside derivatives” (priority 2020, dated 2023).

Usually IC50 stands for the concentration needed to halve the response being measured.

Structures are written as SMILES.

The target in one data set is T1, Molt-4 DNA polymerase a (Homo sapiens, UniProt P09884).
T1 construct: host or cells: Molt-4
The conditions noted are these: read-out: IC50 for inhibition of Molt-4 DNA polymerase a; cited from earlier work.

Data set [1] deals with T2, HIV-reverse transcriptase (Human immunodeficiency virus type 1 group M subtype B, UniProt P04585). The experiment in a line: inhibition of HIV-reverse transcriptase. The format is biochemical. The following applies: ratio of IC50 values. The source says: Another example of a pyrimidine nucleoside analog as a direct acting antiviral is imidine (dImd), a thymidine analog, [17]. […] Its monophosphate (dIMP) readily incorporated into proviral DNA in place of dTMP, preferentially opposite to adenine (A) in the viral RNA template and caused a decrease in the fidelity of replication at the incorporated sites, due to misincorporation.

The target in data set [2] is T2, HIV-reverse transcriptase. The conditions noted are these: read-out: IC50 for inhibition of HIV-reverse transcriptase; cited from earlier work.
In a further data set the test system is human cells in culture. The conditions noted are these: cited from earlier work.

T1 sequence (P09884 whole entry): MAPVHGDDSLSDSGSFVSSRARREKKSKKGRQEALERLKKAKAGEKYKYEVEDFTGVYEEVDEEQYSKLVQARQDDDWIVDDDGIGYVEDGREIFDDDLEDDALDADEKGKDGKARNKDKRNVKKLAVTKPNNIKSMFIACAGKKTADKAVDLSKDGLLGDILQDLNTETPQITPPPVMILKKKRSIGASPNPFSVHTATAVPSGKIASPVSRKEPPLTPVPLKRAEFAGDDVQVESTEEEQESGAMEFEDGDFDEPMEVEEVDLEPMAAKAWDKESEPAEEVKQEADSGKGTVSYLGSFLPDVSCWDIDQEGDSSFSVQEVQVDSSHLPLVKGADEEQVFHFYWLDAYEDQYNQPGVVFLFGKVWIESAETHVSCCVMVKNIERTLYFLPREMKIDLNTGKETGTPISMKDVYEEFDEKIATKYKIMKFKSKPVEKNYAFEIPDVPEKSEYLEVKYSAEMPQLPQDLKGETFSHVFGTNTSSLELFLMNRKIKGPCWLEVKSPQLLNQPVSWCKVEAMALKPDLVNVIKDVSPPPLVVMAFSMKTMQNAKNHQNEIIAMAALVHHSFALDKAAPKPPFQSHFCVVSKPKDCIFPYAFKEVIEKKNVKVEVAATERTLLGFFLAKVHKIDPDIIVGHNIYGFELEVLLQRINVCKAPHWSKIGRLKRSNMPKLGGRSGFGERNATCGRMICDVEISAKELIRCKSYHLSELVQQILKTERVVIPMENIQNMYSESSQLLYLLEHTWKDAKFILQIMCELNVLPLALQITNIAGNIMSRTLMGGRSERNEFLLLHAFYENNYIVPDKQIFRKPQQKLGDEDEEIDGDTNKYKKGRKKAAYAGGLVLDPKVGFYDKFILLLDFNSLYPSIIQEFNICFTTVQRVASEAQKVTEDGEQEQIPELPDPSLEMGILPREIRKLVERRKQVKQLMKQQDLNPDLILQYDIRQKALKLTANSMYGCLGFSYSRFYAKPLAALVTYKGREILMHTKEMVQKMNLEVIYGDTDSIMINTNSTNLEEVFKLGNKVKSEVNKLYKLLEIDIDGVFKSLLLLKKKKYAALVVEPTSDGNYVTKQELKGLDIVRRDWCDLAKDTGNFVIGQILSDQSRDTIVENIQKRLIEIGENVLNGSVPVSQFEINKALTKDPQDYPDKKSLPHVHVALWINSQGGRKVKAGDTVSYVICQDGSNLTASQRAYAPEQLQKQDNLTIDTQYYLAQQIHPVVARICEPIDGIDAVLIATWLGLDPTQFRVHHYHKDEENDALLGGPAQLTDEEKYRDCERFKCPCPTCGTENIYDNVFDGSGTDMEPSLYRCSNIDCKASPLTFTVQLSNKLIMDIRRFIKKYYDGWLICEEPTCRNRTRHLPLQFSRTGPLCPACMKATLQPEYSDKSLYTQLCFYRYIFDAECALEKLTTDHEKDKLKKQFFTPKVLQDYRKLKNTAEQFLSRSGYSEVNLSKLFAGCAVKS
T1 sequence (Q14181 whole entry partner): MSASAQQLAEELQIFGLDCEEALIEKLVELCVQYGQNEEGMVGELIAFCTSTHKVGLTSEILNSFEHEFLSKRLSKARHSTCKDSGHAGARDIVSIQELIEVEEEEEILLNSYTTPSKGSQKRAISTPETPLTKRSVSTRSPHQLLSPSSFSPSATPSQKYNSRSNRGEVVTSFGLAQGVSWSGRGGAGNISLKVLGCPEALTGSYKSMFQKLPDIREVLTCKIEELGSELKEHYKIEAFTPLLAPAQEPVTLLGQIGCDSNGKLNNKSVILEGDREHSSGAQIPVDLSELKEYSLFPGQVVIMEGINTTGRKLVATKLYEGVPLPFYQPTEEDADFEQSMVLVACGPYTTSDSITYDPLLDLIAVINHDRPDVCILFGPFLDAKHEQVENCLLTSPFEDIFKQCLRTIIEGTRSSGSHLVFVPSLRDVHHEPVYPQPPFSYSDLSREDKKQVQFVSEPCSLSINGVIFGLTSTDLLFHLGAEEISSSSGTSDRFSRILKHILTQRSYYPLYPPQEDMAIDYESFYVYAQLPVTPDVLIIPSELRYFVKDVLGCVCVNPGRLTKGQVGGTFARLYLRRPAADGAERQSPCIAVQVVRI
T1 sequence (P49642 whole entry partner): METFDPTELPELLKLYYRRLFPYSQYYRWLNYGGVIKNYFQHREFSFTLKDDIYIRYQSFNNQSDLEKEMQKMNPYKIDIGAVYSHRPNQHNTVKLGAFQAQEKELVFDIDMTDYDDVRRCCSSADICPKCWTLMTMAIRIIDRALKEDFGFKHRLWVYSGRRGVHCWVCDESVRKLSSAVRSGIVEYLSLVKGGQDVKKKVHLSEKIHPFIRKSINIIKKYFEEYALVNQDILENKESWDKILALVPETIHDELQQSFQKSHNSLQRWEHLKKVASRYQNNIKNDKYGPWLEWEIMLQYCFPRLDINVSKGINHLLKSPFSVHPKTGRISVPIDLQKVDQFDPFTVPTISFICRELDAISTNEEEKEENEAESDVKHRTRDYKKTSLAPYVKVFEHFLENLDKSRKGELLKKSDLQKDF
T1 sequence (P49643 whole entry partner): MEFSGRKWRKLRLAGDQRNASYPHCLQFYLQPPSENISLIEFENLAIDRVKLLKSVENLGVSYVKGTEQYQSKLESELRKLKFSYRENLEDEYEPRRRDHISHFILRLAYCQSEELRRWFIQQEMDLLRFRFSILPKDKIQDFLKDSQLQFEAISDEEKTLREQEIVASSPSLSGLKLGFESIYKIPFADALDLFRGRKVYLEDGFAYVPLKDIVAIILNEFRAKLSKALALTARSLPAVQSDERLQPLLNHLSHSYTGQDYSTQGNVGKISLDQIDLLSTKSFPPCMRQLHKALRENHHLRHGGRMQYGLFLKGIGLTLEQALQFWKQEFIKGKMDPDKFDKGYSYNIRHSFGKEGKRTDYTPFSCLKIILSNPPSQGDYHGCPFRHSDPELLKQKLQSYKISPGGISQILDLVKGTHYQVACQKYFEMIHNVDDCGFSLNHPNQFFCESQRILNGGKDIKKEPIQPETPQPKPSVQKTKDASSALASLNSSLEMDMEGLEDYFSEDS

`CC(=O)c1cn(C2CC(O)C(COP(=O)(O)OP(=O)(O)OP(=O)(O)O)O2)c(=O)[nH]1` (stereo not shown) [dImdTP]: the IC50 at Molt-4 DNA polymerase a was 17 µM; in data set [2], 0.038 µM. In addition, the “selectivity (HIV-reverse transcriptase vs Molt-4 DNA polymerase a)” value in data set [1] is more than 400 fold.
For `CC(=O)c1cn([C@H]2C[C@H](O)[C@@H](CO)O2)c(=O)[nH]1` [imidine, 1-(2-deoxy-β-D-ribofuranosyl)-4-acetylimidazolin-2-one], the cytotoxicity result in the data set on human cells in culture was “no cytotoxicity”.
